Values quoted from earlier work as cited in patent US20160045407A1, “DENTRIFICE WITH INCREMENTAL CHEMISTRIES” (The Procter & Gamble Company, priority 2014, published 2016).

Conditions: concentration level where the cooling effect can be clearly recognized

Structure (SMILES)	cooling threshold
CC(C)[C@@H]1CC[C@@H](C)C[C@@H]1O [1-neomenthol]	about 3,000 ppb
CC(C)[C@@H]1CC[C@@H](C)C[C@H]1O [L-menthol]	about 800 ppb
CC(C)[C@@H]1CC[C@@H](C)C[C@@H]1O [d-neomenthol]	about 25,000 ppb
